Assay results taken from ChEMBL document CHEMBL3885881, “DrugMatrix”.

Organism: Rattus norvegicus
Assay: DrugMatrix - Regimen: Daily Repeat
Format: toxicity, organism-based, Sprague-Dawley
Design: regimen Daily Repeat, gender Male, age 6-8 weeks
Conditions: in vivo, po, 1200 mg/kg, route oral GAVAGE, dose level High, vehicle .5 % CMC; for ABSOLUTE BASOPHIL / ABSOLUTE EOSINOPHIL / ABSOLUTE LYMPHOCYTE / ABSOLUTE MONOCYTE / ABSOLUTE SEGMENTED NEUTROPHIL / BASOPHIL / EOSINOPHIL / ERYTHROCYTE COUNT / HEMATOCRIT / HEMOGLOBIN / LEUKOCYTE COUNT / LYMPHOCYTE / MEAN CORPUSCULAR HEMOGLOBIN / MEAN CORPUSCULAR HEMOGLOBIN CONCENTRATION / MEAN CORPUSCULAR VOLUME / MONOCYTE / NEUTROPHIL / NUCLEATED RED BLOOD CELLS / PLATELET COUNT: tissue Blood; for ALANINE AMINOTRANSFERASE / ALBUMIN / ALKALINE PHOSPHATASE / ASPARTATE AMINOTRANSFERASE / BLOOD UREA NITROGEN / CARBON DIOXIDE / CHLORIDE / CHOLESTEROL / CREATINE PHOSPHOKINASE / CREATININE / GLUCOSE / LACTATE DEHYDROGENASE / LIPASE / PHOSPHORUS / POTASSIUM / SODIUM / TOTAL BILIRUBIN / TOTAL PROTEIN / URIC ACID: tissue Plasma

Which “ABSOLUTE BASOPHIL” value (72 h, time 3 day) does the source give for `O=C(C1CCCCC1)N1CC(=O)N2CCc3ccccc3C2C1` (stereo unspecified) [PRAZIQUANTEL] here?
The value was 0 CELLS/uL.

What about the “ABSOLUTE EOSINOPHIL” value (72 h, time 3 day) of the same molecule?
The value was 48 CELLS/uL.

And the “ABSOLUTE LYMPHOCYTE” value (72 h, time 3 day)?
Its value is 14636 CELLS/uL.

And the “ABSOLUTE MONOCYTE” value (72 h, time 3 day)?
The value was 440 CELLS/uL.

What about the “ABSOLUTE SEGMENTED NEUTROPHIL” value (72 h, time 3 day) of the same molecule?
The value was 1476 CELLS/uL.

What about the BASOPHIL (72 h, time 3 day) of the same molecule?
Its BASOPHIL is 0%.

What about the EOSINOPHIL (72 h, time 3 day) of the same molecule?
The EOSINOPHIL was 0.33%.

What about the “ERYTHROCYTE COUNT” value (72 h, time 3 day) of the same molecule?
The value was 6.1 x10E6/uL.

And the HEMATOCRIT (72 h, time 3 day)?
Its HEMATOCRIT is 37.8%.

What about the HEMOGLOBIN (72 h, time 3 day) of the same molecule?
Its HEMOGLOBIN is 14.07 G/DL.

What about the “LEUKOCYTE COUNT” value (72 h, time 3 day) of the same molecule?
The value was 16.6 x10E3/uL.

And the LYMPHOCYTE (72 h, time 3 day)?
Its LYMPHOCYTE is 88%.

And the “MEAN CORPUSCULAR HEMOGLOBIN” value (72 h, time 3 day)?
The value was 23.1 pg.

What about the “MEAN CORPUSCULAR HEMOGLOBIN CONCENTRATION” value (72 h, time 3 day) of the same molecule?
Its value is 37.23 G/DL.

What about the “MEAN CORPUSCULAR VOLUME” value (72 h, time 3 day) of the same molecule?
Its value is 62.03 fL.

What about the MONOCYTE (72 h, time 3 day) of the same molecule?
The MONOCYTE was 2.67%.

And the NEUTROPHIL (72 h, time 3 day)?
Its NEUTROPHIL is 9%.

What about the “NUCLEATED RED BLOOD CELLS” value (72 h, time 3 day) of the same molecule?
Its value is 0 /100WBC.

And the “PLATELET COUNT” value (72 h, time 3 day)?
Its value is 1207 x10E3/uL.

And the “ALANINE AMINOTRANSFERASE” value (72 h, time 3 day)?
The value was 78.33 u/L.

And the ALBUMIN (72 h, time 3 day)?
The ALBUMIN was 4.17 G/DL.

What about the “ALKALINE PHOSPHATASE” value (72 h, time 3 day) of the same molecule?
The value was 420.67 u/L.

And the “ASPARTATE AMINOTRANSFERASE” value (72 h, time 3 day)?
The value was 106 u/L.

What about the “BLOOD UREA NITROGEN” value (72 h, time 3 day) of the same molecule?
Its value is 16.67 mg/dL.

And the “CARBON DIOXIDE” value (72 h, time 3 day)?
Its value is 21.67 mmol/L.

And the CHLORIDE (72 h, time 3 day)?
The CHLORIDE was 106 MEQ/L.

And the CHOLESTEROL (72 h, time 3 day)?
The CHOLESTEROL was 113 mg/dL.

And the “CREATINE PHOSPHOKINASE” value (72 h, time 3 day)?
The value was 468 u/L.

What about the CREATININE (72 h, time 3 day) of the same molecule?
Its CREATININE is 0.27 mg/dL.

What about the GLUCOSE (72 h, time 3 day) of the same molecule?
The GLUCOSE was 155.33 mg/dL.

What about the “LACTATE DEHYDROGENASE” value (72 h, time 3 day) of the same molecule?
The value was 155.67 u/L.

And the LIPASE (72 h, time 3 day)?
The LIPASE was 12.33 u/L.

What about the PHOSPHORUS (72 h, time 3 day) of the same molecule?
The PHOSPHORUS was 12.53 mg/dL.

What about the POTASSIUM (72 h, time 3 day) of the same molecule?
Its POTASSIUM is 6.11 MEQ/L.

What about the SODIUM (72 h, time 3 day) of the same molecule?
Its SODIUM is 146.03 MEQ/L.

And the “TOTAL BILIRUBIN” value (72 h, time 3 day)?
Its value is 0.17 mg/dL.

And the “TOTAL PROTEIN” value (72 h, time 3 day)?
The value was 5.9 G/DL.

And the “URIC ACID” value (72 h, time 3 day)?
The value was 1.8 mg/dL.

What about the “ABSOLUTE BASOPHIL” value (120 h, time 5 day) of the same molecule?
The value was 0 CELLS/uL.

And the “ABSOLUTE EOSINOPHIL” value (120 h, time 5 day)?
Its value is 0 CELLS/uL.

What about the “ABSOLUTE LYMPHOCYTE” value (120 h, time 5 day) of the same molecule?
Its value is 15049.33 CELLS/uL.

And the “ABSOLUTE MONOCYTE” value (120 h, time 5 day)?
The value was 624 CELLS/uL.

And the “ABSOLUTE SEGMENTED NEUTROPHIL” value (120 h, time 5 day)?
The value was 1126.67 CELLS/uL.

What about the BASOPHIL (120 h, time 5 day) of the same molecule?
The BASOPHIL was 0%.

And the EOSINOPHIL (120 h, time 5 day)?
The EOSINOPHIL was 0%.

And the “ERYTHROCYTE COUNT” value (120 h, time 5 day)?
Its value is 6.07 x10E6/uL.

What about the HEMATOCRIT (120 h, time 5 day) of the same molecule?
The HEMATOCRIT was 37.33%.

What about the HEMOGLOBIN (120 h, time 5 day) of the same molecule?
Its HEMOGLOBIN is 14 G/DL.

And the “LEUKOCYTE COUNT” value (120 h, time 5 day)?
The value was 16.8 x10E3/uL.

And the LYMPHOCYTE (120 h, time 5 day)?
Its LYMPHOCYTE is 89.67%.

What about the “MEAN CORPUSCULAR HEMOGLOBIN” value (120 h, time 5 day) of the same molecule?
Its value is 23.07 pg.

What about the “MEAN CORPUSCULAR HEMOGLOBIN CONCENTRATION” value (120 h, time 5 day) of the same molecule?
Its value is 37.53 G/DL.

And the “MEAN CORPUSCULAR VOLUME” value (120 h, time 5 day)?
The value was 61.5 fL.

And the MONOCYTE (120 h, time 5 day)?
The MONOCYTE was 3.67%.

And the NEUTROPHIL (120 h, time 5 day)?
The NEUTROPHIL was 6.67%.

And the “NUCLEATED RED BLOOD CELLS” value (120 h, time 5 day)?
Its value is 0 /100WBC.

What about the “PLATELET COUNT” value (120 h, time 5 day) of the same molecule?
The value was 1413.33 x10E3/uL.

And the “ALANINE AMINOTRANSFERASE” value (120 h, time 5 day)?
Its value is 57.67 u/L.

What about the ALBUMIN (120 h, time 5 day) of the same molecule?
The ALBUMIN was 4.2 G/DL.

What about the “ALKALINE PHOSPHATASE” value (120 h, time 5 day) of the same molecule?
Its value is 351.33 u/L.

What about the “ASPARTATE AMINOTRANSFERASE” value (120 h, time 5 day) of the same molecule?
The value was 77 u/L.

What about the “BLOOD UREA NITROGEN” value (120 h, time 5 day) of the same molecule?
The value was 17.67 mg/dL.

And the “CARBON DIOXIDE” value (120 h, time 5 day)?
The value was 27.33 mmol/L.

What about the CHLORIDE (120 h, time 5 day) of the same molecule?
Its CHLORIDE is 103.67 MEQ/L.

What about the CHOLESTEROL (120 h, time 5 day) of the same molecule?
The CHOLESTEROL was 102.33 mg/dL.

And the “CREATINE PHOSPHOKINASE” value (120 h, time 5 day)?
The value was 250.67 u/L.

What about the CREATININE (120 h, time 5 day) of the same molecule?
The CREATININE was 0.22 mg/dL.

And the GLUCOSE (120 h, time 5 day)?
The GLUCOSE was 153 mg/dL.

What about the “LACTATE DEHYDROGENASE” value (120 h, time 5 day) of the same molecule?
Its value is 208.67 u/L.

And the LIPASE (120 h, time 5 day)?
The LIPASE was 12.33 u/L.

What about the PHOSPHORUS (120 h, time 5 day) of the same molecule?
Its PHOSPHORUS is 13.13 mg/dL.

What about the POTASSIUM (120 h, time 5 day) of the same molecule?
Its POTASSIUM is 7.47 MEQ/L.

What about the SODIUM (120 h, time 5 day) of the same molecule?
The SODIUM was 145.47 MEQ/L.

What about the “TOTAL BILIRUBIN” value (120 h, time 5 day) of the same molecule?
Its value is 0.17 mg/dL.

What about the “TOTAL PROTEIN” value (120 h, time 5 day) of the same molecule?
Its value is 6.33 G/DL.

And the “URIC ACID” value (120 h, time 5 day)?
Its value is 2.3 mg/dL.
